#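 Growth conditions: 96-well plates. Treatment: test compound, 48 hours, 5 concentrations. Analysis: linear interpolation between bracketing concentrations; unreached endpoints set to highest concentration. GI50 = concentration required for 50% inhibition of growth. TGI: concentration producing complete growth inhibition.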
# Columns and labels:
# Assay in all cases: NCI-60 cell line screen, 48 h
# M14 melanoma = tested on: M14 melanoma
# SW-620 colon = tested on: SW-620 colon
# LOX IMVI melanoma = tested on: LOX IMVI melanoma
# RXF 393 renal = tested on: RXF 393 renal
# COLO 205 colon = tested on: COLO 205 colon
# IGROV1 ovarian = tested on: IGROV1 ovarian
# MALME-3M melanoma = tested on: MALME-3M melanoma
# SF-268 CNS = tested on: SF-268 CNS
# CAKI-1 renal = tested on: CAKI-1 renal
# KM12 colon = tested on: KM12 colon
# DU-145 prostate = tested on: DU-145 prostate
# UO-31 renal = tested on: UO-31 renal
# MCF7 breast = tested on: MCF7 breast
# HCT-116 colon = tested on: HCT-116 colon
# MDA-MB-435 = tested on: MDA-MB-435
# SK-OV-3 ovarian = tested on: SK-OV-3 ovarian
# ACHN renal = tested on: ACHN renal
# HT29 colon = tested on: HT29 colon
# SR leukemia = tested on: SR leukemia
# NCI-H460 lung = tested on: NCI-H460 lung
# OVCAR-8 ovarian = tested on: OVCAR-8 ovarian
# UACC-62 melanoma = tested on: UACC-62 melanoma
# A549 NSCLC = tested on: A549 NSCLC
# MDA-MB-231 breast = tested on: MDA-MB-231 breast
# PC-3 prostate = tested on: PC-3 prostate
# NCI/ADR-RES ovarian = tested on: NCI/ADR-RES ovarian
# SF-539 CNS = tested on: SF-539 CNS
# SNB-75 CNS = tested on: SNB-75 CNS
# MOLT-4 leukemia = tested on: MOLT-4 leukemia
smiles,measurement,setting,value
COc1ccc2c(c1)C(=O)/C(=C/c1cccc(OCC(=O)Nc3nc4c(s3)CCCC4)c1)O2,TGI,M14 melanoma,4510 nM
same,GI50,SW-620 colon,805 nM
same,TGI,SW-620 colon,2070 nM
same,GI50,LOX IMVI melanoma,24.8 nM
same,TGI,LOX IMVI melanoma,66 nM
same,GI50,RXF 393 renal,583 nM
same,TGI,RXF 393 renal,1580 nM
same,GI50,COLO 205 colon,729 nM
same,TGI,COLO 205 colon,2020 nM
same,GI50,IGROV1 ovarian,< 15.3 nM
same,TGI,IGROV1 ovarian,54 nM
same,GI50,MALME-3M melanoma,800 nM
same,TGI,MALME-3M melanoma,2860 nM
same,GI50,SF-268 CNS,314 nM
same,TGI,SF-268 CNS,1080 nM
same,GI50,CAKI-1 renal,383 nM
same,TGI,CAKI-1 renal,804 nM
same,GI50,KM12 colon,720 nM
same,TGI,KM12 colon,4090 nM
same,GI50,DU-145 prostate,499 nM
same,TGI,DU-145 prostate,1220 nM
same,GI50,UO-31 renal,54.4 nM
same,TGI,UO-31 renal,101 nM
same,GI50,MCF7 breast,2830 nM
same,TGI,MCF7 breast,11800 nM
same,GI50,HCT-116 colon,1130 nM
same,TGI,HCT-116 colon,2340 nM
same,GI50,MDA-MB-435,2590 nM
same,TGI,MDA-MB-435,9420 nM
same,GI50,SK-OV-3 ovarian,11800 nM
same,TGI,SK-OV-3 ovarian,25100 nM
same,GI50,ACHN renal,1470 nM
same,TGI,ACHN renal,2790 nM
same,GI50,HT29 colon,642 nM
same,TGI,HT29 colon,1800 nM
same,GI50,SR leukemia,156 nM
same,TGI,SR leukemia,351 nM
same,GI50,NCI-H460 lung,3480 nM
same,TGI,NCI-H460 lung,13400 nM
same,GI50,OVCAR-8 ovarian,1300 nM
same,TGI,OVCAR-8 ovarian,8710 nM
same,GI50,UACC-62 melanoma,5230 nM
same,TGI,UACC-62 melanoma,18400 nM
same,GI50,A549 NSCLC,3310 nM
same,TGI,A549 NSCLC,18500 nM
same,GI50,MDA-MB-231 breast,1180 nM
same,TGI,MDA-MB-231 breast,5380 nM
same,GI50,PC-3 prostate,285 nM
same,TGI,PC-3 prostate,1010 nM
same,GI50,NCI/ADR-RES ovarian,2120 nM
same,TGI,NCI/ADR-RES ovarian,6370 nM
same,GI50,SF-539 CNS,1320 nM
same,TGI,SF-539 CNS,2690 nM
same,GI50,SNB-75 CNS,1750 nM
same,TGI,SNB-75 CNS,12000 nM
same,GI50,MOLT-4 leukemia,930 nM
same,TGI,MOLT-4 leukemia,> 100000 nM
